Structures are written as SMILES.

One data set has as its target T1, Adenosine A1 (Homo sapiens, UniProt P30542).
T1 sequence (P30542 1-326): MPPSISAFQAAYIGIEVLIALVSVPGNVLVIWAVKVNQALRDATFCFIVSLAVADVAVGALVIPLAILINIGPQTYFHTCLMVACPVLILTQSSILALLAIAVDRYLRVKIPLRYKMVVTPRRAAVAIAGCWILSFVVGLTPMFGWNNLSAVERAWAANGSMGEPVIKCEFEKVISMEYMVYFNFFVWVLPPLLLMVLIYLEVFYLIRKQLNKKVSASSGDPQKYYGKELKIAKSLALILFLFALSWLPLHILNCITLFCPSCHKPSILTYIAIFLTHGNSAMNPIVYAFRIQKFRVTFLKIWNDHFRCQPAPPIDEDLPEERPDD
The data set is described as follows: Functional assay (luciferase reporter), inhibition of A1 adenosine receptor. The following applies: for A1 AR Imax: Imax in % of the corresponding antagonist (CPX). More on the design: expressed in transfected cells; host or cells: CHO-DUKX-SRE-Luci-A1-44 (CHO-DUKX, vector pCineo). The format is cell-based.

Data set [1] addresses T2, A1-adenosine receptor human recombinant (Homo sapiens, UniProt P30542).
T2 construct: expressed in transfected cells
T2 sequence (P30542 1-326): T1 sequence (P30542 1-326)
The data set is described as follows: Radioligand binding assay 1, human recombinant A1 adenosine receptor. The following applies: [3H]CCPA. The protocol: (§1) Rat brain preparations were used for A1- and A2A adenosine receptor (AR) and human recombinant cell samples for A1-, A2A- and A3 adenosine receptor radioligand binding studies. Affinity and selectivity was tested in displacement experiments with following radioligands: [^3H]CCPA for A1-adenosine receptors, [^3H]MSX-2 for A2A-receptors and [^3H]PSB-11 for A3-receptors. Results of these experiments are depicted in table 2b (human data) and table 2a (rat data). Radioligand binding test systems are e.g. generally described by Muller et al., Curr. Pharm. Des., 1996, 2, 501 and Weyler et al., ChemMedChem 2006, 1, 891 and references cited therein) These documents are incorporated herein by reference.

For data set [2], the target named is T3, A2A-adenosine receptor human recombinant (Homo sapiens, UniProt P29274).
T3 construct: expressed in transfected cells
T3 sequence (P29274 whole entry): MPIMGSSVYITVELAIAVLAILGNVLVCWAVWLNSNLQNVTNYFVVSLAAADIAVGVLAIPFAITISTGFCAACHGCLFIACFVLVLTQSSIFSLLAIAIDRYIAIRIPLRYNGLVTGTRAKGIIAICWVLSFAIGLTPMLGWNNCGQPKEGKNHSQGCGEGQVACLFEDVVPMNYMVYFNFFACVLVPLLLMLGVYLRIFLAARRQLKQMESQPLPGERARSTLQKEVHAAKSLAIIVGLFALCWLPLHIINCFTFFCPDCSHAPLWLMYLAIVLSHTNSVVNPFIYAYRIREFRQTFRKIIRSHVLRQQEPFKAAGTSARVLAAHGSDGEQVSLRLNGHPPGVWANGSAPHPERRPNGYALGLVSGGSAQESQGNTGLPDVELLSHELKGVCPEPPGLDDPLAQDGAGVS
The experiment in a line: Radioligand binding assay 1, human recombinant A2A adenosine receptor. The following applies: human recombinant, [3H]MSX-2; read-out: A2A-adenosine receptor human recombinant [3H] MSX-2 Ki. The protocol: as §1

The next data set concerns the target Adenosine A2A (Homo sapiens, UniProt P29274). The experiment in a line: Functional assay (luciferase reporter), inhibition of A2A adenosine receptor. The format is cell-based. More on the design: expressed in transfected cells; host or cells: CHO-DUKX-CRE-A2A-19 (CHO-DUKX, vector pCineo). The following applies: for IC50: CHO-DUKX-CRE-A2A-19 cells, 60 nM NECA, read-out: A2A AR IC50; for A2A AR Imax: Imax in % of the corresponding antagonist; for Ki: Ki=IC50/(1+agonist concentration/EC50), read-out: A2A AR Ki.

The subject of a further data set is rats. The data set is described as follows: Modified Irwin test (FOB, SAC, FU). The format is in vivo, rat. More on the design: key to Hypersensitivity / Temperature / Respiration / Tremor / Stereotypies / Patterns Activity / Motor Coordination / Catalepsy: +++ = very strong effect.; ++ = strong effect.; + = average effect.; 0 = no effect.; − = negative effect. The following applies: modified Irwin test, 0.01-30 mg/kg, compressed outcome. The source says: In this study the compounds of the present invention were screened for basal behavioural, autonomic, neurological and toxicological side-effects in rats. For this purpose, a functional observational battery (FOB) in form of an Irwin test (Irwin S., Psychopharmacologia, 1968, 13, 222; 1968; Warburton D. M. Psychopharmacology, 2002, 163, 4; Haggerty G. C. et al., J. Amer. Coll. Toxicol., 1991, 10, 677; Mattsson J. L. et al., J. Amer. Coll. Toxicol., 1996, 15, 239, all references are herein incorporated by reference) modified and validated by the Test Facility was used. Each test compound was tested at eight doses (0.01, 0.03, 0.1, 0.3, 1.0, 3.0, 10.0 and 30.0 mg/kg). All compounds were dissolved in DMSO (administration volume 1 ml/kg). Each dose group included three animals. Two vehicle groups (DMSO and Labrasol) served as negative controls.
At the first day of each test week all test compound solutions necessary for the test (1-2 weeks) were prepared by means of one dilution series starting with the highest concentration. All test compounds dissolved in DMSO were administered in a volume of 1 ml/kg. DMSO-containing solutions were stored at −18° C. All solutions were melted for administration at room temperature 16-20 hours before the start of the test.
Study design and time schedule:
4-7 days: Acclimatization and handling of the animals 1 day: Test day with • (a) Four repeated functional observational battery (FOB): 30 min, 60 min, 120 min, 180 min following compound administration • (b) Short animal check (SAC): 300 min following compound administration 1 day: Follow-up observation (FU): • 24 h (1440 min) following compound administration.
In all experimental parts, an experienced ethologist used lists of predefined methods and behavioural parameters in order to rate the behaviour of the animal (see table 7 for functional observational battery (FOB), table 8 for short animal check (SAC) and table 9 for follow-up observation (FU).
A statistical evaluation of the data was performed that enabled an assessment of the compound's effects on each parameter. Dose-response relationships are not necessarily linear. It was not clear a priori whether the response would be dose-dependent or whether low, medium or high dose effects would occur. Therefore, the data were correlated against a set of different numeric models of theoretical dose-response curves. For this kind of evaluation the measurement times were not differentiated. An average value over all measurement times was calculated for each animal. This value was taken as one measurement within the observation vector. The complete set of parameters measured for the animal (each one averaged over time) formed the observation vector. Each dose was then represented by three observation vectors (3 animals per dose). The effects of all doses were compared with vehicle (DMSO) as the observation vectors for the zero dose. A common pool of 24 animals for the zero dose was used for all compounds to be tested. For each test compound the obtained values for each parameter together with values from the pool of vehicle-treated (DMSO) animals were then correlated with theoretical dose-response models (analysis profiles). Since 8 doses were be used, there were 8 models, each assuming that the maximum compound effect occurred at one of these doses. Effects of other doses were assumed to be attenuated with a linearly descending slope of the theoretical curve. Correlation values and statistical significance of regression were then calculated. An error probability of p<0.05 (two-tailed testing) was taken as significance level. Non-significant regressions were neglected. In consequence, each parameter was assessed as not affected or affected by the compound in a dose-response relationship according to type 1 (low dose effect) up to type 8 (high dose effect). Dose response is maximal for the effect with the greatest absolute correlation coefficient. […]

Sequence of Adenosine A2A (P29274 whole entry): as above

As for `CCCn1c(=O)c2[nH]c(C3CCCC3)nc2n(CCC)c1=O` [CPX, 8-Cyclopentyl 1,3-diprophylxanthine, reference compound], the “A1 AR Imax” value on Adenosine A1 was 100%.

For `C#CCn1c(=O)c2c(nc(C#Cc3ccc(OC)c(OC)c3)n2C)n(CC#N)c1=O` [drawing 576], the Ki in data set [1] is greater than 1000 nM; in data set [2], 32.2 ± 20.5 nM.

As for `C#CCn1c(=O)c2c(nc(C#Cc3ccc(OC)c(OC)c3)n2C)n(CCC#N)c1=O` [drawing 577], the Ki was greater than 1000 nM in data set [1] and 84.3 ± 31 nM in data set [2].

Turning to `C#CCn1c(=O)c2c(nc(C#Cc3ccc(OC)c(OC)c3)n2C)n(CC(C)O)c1=O` (stereo not shown) [drawing 578], the Ki in data set [1] was greater than 1000 nM; in data set [2], 14 ± 4.1 nM.

Consider `C#CCn1c(=O)c2c(nc(C#Cc3ccc(OC)c(OC)c3)n2C)n(Cc2ccco2)c1=O` [drawing 579], for which the Ki is greater than 1000 nM in data set [1] and 13.9 ± 0.8 nM in data set [2].

For `C#CCn1c(=O)c2c(nc(C#Cc3ccc(OC)c(OC)c3)n2C)n(CCCOC)c1=O` [drawing 581], the Ki is greater than 1000 nM in data set [1] and 123 ± 62 nM in data set [2].

Regarding `C#CCn1c(=O)c2c(nc(C#Cc3ccc(OC)c(OC)c3)n2C)n(CCCC#N)c1=O` [drawing 582], the Ki in data set [1] was greater than 1000 nM; in data set [2] it was 58 ± 13.3 nM.

`C#CCn1c(=O)c2c(nc(C#Cc3ccc(OC)c(OC)c3)n2C)n(Cc2ccoc2)c1=O` [drawing 583]: the Ki in data set [1] is greater than 1000 nM; in data set [2], 8.4 ± 6.7 nM.

Take `C#CCn1c(=O)c2c(nc(C#Cc3ccc(OC)c(OC)c3)n2C)n(CCC)c1=O` [drawing 584]: the inhibition constant Ki in data set [1] was greater than 1000 nM; in data set [2], 36.6 ± 8.7 nM.

Turning to `C#CCn1c(=O)c2c(nc(C#Cc3ccc(OC)c(OC)c3)n2C)n(CC(C)C)c1=O` [drawing 585], the Ki in data set [1] was no less than 1000 nM; in data set [2], 200 ± 99 nM.

With `C#CCn1c(=O)c2c(nc(C#Cc3ccc(OC)c(OC)c3)n2C)n(C(C)C)c1=O` [drawing 586], the Ki was greater than 1000 nM in data set [1] and 127 ± 19 nM in data set [2].

For the molecule `C#CCn1c(=O)c2c(nc(C#Cc3ccc(OC)c(OC)c3)n2C)n(CCF)c1=O` [drawing 587], the Ki in data set [1] was greater than 1000 nM; in data set [2], 30.8 ± 4.9 nM.

`C#CCn1c(=O)c2c(nc(C#Cc3ccc(F)c(OC)c3)n2C)n(CC)c1=O` [drawing 588]: the figures for the Ki in data set [1] and in data set [2] were greater than 1000 nM and 100 ± 28 nM, respectively.

`C#CCn1c(=O)c2c(nc(C#Cc3ccc(OC)c(OC)c3)n2C)n(Cc2cccs2)c1=O` [drawing 589]: the figures for the Ki in data set [1] and in data set [2] were greater than 1000 nM and 416 ± 44 nM, respectively.

On to `C#CCn1c(=O)c2c(nc(C#Cc3ccc(OC)c(OC)c3)n2C)n(CC2CC2)c1=O` [drawing 590], for which the inhibitory constant (Ki) in data set [1] was greater than 1000 nM; in data set [2], 56.3 ± 26.4 nM.

As to `C#CCn1c(=O)c2c(nc(C#Cc3ccc(OC)c(OC)c3)n2C)n(Cc2cnc[nH]2)c1=O` [drawing 593], the Ki was greater than 1000 nM in data set [1] and 103 nM in data set [2].

With `C#CCn1c(=O)c2c(nc(C#Cc3ccc(OC)c(OC)c3)n2C)n(CC(O)CO)c1=O` (stereo not shown) [drawing 595], the Ki in data set [1] was greater than 1000 nM; in data set [2] it was 62.7 ± 10.7 nM.

Turning to `C#CCn1c(=O)c2c(nc(C#Cc3ccc(Cl)c(Cl)c3)n2C)n(CC)c1=O` [drawing 597], the Ki in data set [1] was greater than 1000 nM; in data set [2], 738 ± 146 nM.

Consider `C#CCn1c(=O)c2c(nc(C#Cc3ccc(OC)c(OC)c3)n2C)n(CC(=O)OC)c1=O` [drawing 598], for which the values for the Ki in data set [1] and in data set [2] were greater than 1000 nM and 38.2 ± 8.5 nM, respectively.

Regarding `C#CCn1c(=O)c2c(nc(C#Cc3cccc(OC)c3)n2C)n(C)c1=O` [drawing 617], the “A1 AR IC50” value on Adenosine A1 (CHO-DUKX-SRE-Luci-A1-44 cells, 3.5 μM ADAC) was “Nosignificantactivitydetected”. The “A1 AR Imax” value on Adenosine A1 is given as “Nosignificantactivitydetected”. Besides, the “A1 AR Ki” value on Adenosine A1 (Ki=IC50/(1+agonist concentration/EC50)) is listed as “Nosignificantactivitydetected”. Also, at Adenosine A2A, the IC50 was 1900 nM, the “A2A AR Imax” value was 90% and the Ki was determined as 178 nM.

`C#CCn1c(=O)c2c(nc(C#Cc3ccc(OC)c(OC)c3)n2C)n(CC)c1=O` [drawing 618]: at Adenosine A1 (CHO-DUKX-SRE-Luci-A1-44 cells, 3.5 μM ADAC, read-out: A1 AR IC50), the half-maximal inhibitory concentration (IC50) turned out to be 3.9 µM. For the same molecule, on Adenosine A1, the “A1 AR Imax” value is 49%. Further, the Ki at Adenosine A1 (Ki=IC50/(1+agonist concentration/EC50), read-out: A1 AR Ki) came out at 854 nM. At Adenosine A2A, the half-maximal inhibitory concentration (IC50) stood at 200 nM, the “A2A AR Imax” value is given as 97% and the Ki is 23 nM.

With `C#CCn1c(=O)c2c(nc(C#Cc3ccc(OC)c(OC)c3)n2C)n(CC)c1=O` [drawing 624], in the data set on rats, the Catalepsy is 0, the Hypersensitivity entry was “++”, the “Motor Coordination” value came out at 0 and the “Patterns Activity” value is “+++”. Besides, in the data set on rats, the Respiration entry is listed as “+++”, the Stereotypies result is reported as “++”, the Temperature entry is recorded as “+” and the Tremor stood at 0.

As to `C#CCn1c(=O)c2c(nc(C#Cc3ccc(OC)c(OC)c3)n2C)n(CCCO)c1=O` [drawing 625], in the data set on rats, the Catalepsy worked out at 0, the Hypersensitivity is 0, the “Motor Coordination” value is listed as “−” and the “Patterns Activity” value was “++”. In the data set on rats, the Respiration entry is “+++”, the Stereotypies result is on record as “+”, the Temperature entry was “−” and the Tremor entry is “+”.

Take `C#CCn1c(=O)c2c(nc(C#Cc3cccc(OC)c3)n2C)n(CCCO)c1=O` [drawing 626]: in the data set on rats, the Catalepsy came out at 0, the Hypersensitivity entry was “+”, the “Motor Coordination” value came to 0 and the “Patterns Activity” value was “+”. Moreover, in the data set with rats, the Respiration entry was “++”, the Stereotypies turned out to be 0, the Temperature was 0 and the Tremor is 0.

(Values after patent US20080221134A1, “8-ALKYNYLXANTHINES AND DERIVATIVES” (priority 2006, published 2008).)
